Source: patent US6602499B1, “Combination viral-based and gene-based therapy of tumors” (priority 1998, dated 2003)

Legend:
Vero cells = format: cell-based; conditions: CPA at concentrations up to 200 uM
[1] = test system: rRp450- and hrR3-infected 9L cells; test: Viral protein synthesis (35S-methionine pulse, autoradiography) in infected 9L cells; format: cell-based, rat; conditions: 9L cells grown with 250 uM CPA or 100 ng/ml ganciclovir for 30 hours, then infected with rRp450 or hrR3 at MOI=3
Experimental: FIG. 4 is an autoradiograph depicting the effect of CPA on rRp450 protein synthesis in infected 9L tumor cells. 9L tumor cells were grown in the presence of CPA (lanes 3 and 6), 100 ng/ml ganciclovir (lanes 2 and 5), or vehicle (lanes 1 and 4). Cells from each group were then infected with rRp450 (lanes 4-6) or hrR3 (lanes 1-3). After pulsing with ^35S-methionine, cell lysates were separated by electrophoresis. The designations, 6,5,8, gB, and pgB indicate the viral ICP6-lacZ fusion, ICP5, ICP8, and glycoprotein B, respectively. The size of molecular weight markers is indicated on the left side of the blot.
Measurement of Viral Protein Synthesis: 9L tumor cells were grown in the presence of 250 uM CPA, 100 ng/ml ganciclovir, or vehicle for 30 hours. Cells from each group were then infected with rRp450 or hrR3 at an MOI=3. Control plates were infected with a mock viral preparation. Eighteen hours later, medium was removed and fresh medium containing 20 uCi of ^35S-methionine was added. Cells were then scraped and harvested two hours later. Cell pellets were resuspended in sodium phosphate, pH=7.3. in 0.9% sodium chloride in the presence of protease inhibitors and then sheared by passage through a 28 and a ½ gauge needle. Protein concentrations were calculated by using a commercially available kit (BioRad). […]

9L cells = test: Viral yields from infected 9L cells treated with cyclophosphamide, plaque assay on Vero cells; format: cell-based, rat; conditions: 9L cells infected with rRp450 in presence or absence of cyclophosphamide, three days
Experimental: Three day later, cells and supernatants were harvested and virus was harvested by freeze-thawing three times. Plaque-assays on Vero cells were performed to measure viral yields. Assay was performed in triplicate plates.
Cell culture studies: Cells were usually plated the day before viral infection. The following day, 3 random dishes were trypsinized and cell numbers were enumerated using a Coulter counter. Based on the mean cell number, the viral mutant was added to achieve the desired multiplicity of infection (MOI). Experiments were performed in triplicate dishes.
CPA: CPA was added at the start of the incubation period at a concentration of 250 Um.

human U87 tumors = test: Subcutaneous human U87 glioma tumors in athymic mice, intratumoral injection; format: in vivo; conditions: rRp450 2.5×10^8 pfus plus vehicle, or 1 mg CPA alone
From the text: FIG. 6B is a graph depicting the in vivo augmentation of rRp450's oncolytic effect by CPA on U87 tumors. Human U87 tumors were inoculated with CPA (closed circles), rRp450 plus vehicle (open circles), or rRp450 plus CPA (dark squares). The black vertical arrows indicate the times of injection (days 1, 2, 4, and 6). Values represent the average tumor volume from 5 mice per group. Error bars represent the standard error of the mean. For this experiment, differences were statistically significant at the 22, 26 and 29 day time point (P<0.05, one way analysis of variance).
In a similar experiment, visible subcutaneous nodules (the range of volumes was 10-135 mm^3 and the average volume was 74 mm^3) were established by the injection of 10^6 human U87 glioma cells into the subcutaneous flank of athymic mice (NCY/sed, nu/nu; MGH breeding colony). Thirty days later the tumors were treated with intratumoral injections, using a Hamilton syringe, of 1 mg CPA in 125 ul of medium, rRp450 (2.5×10^8 pfus) plus vehicle in 125 ul of medium, or rRp450 (2.5×10^8 pfus) plus 1 mg CPA in 125 ul of medium. Tumor inoculations were repeated on day 2, day 4 and day 6. Five mice were used per treatment group. […]

SMILES: Nc1nc(O)c2ncn(COC(CO)CO)c2n1 [ganciclovir]
- Inhibition of plaque production (Vero cells): did
- Effect of drug on viral protein synthesis [1]: inhibited the synthesis of viral proteins

SMILES: O=P1(N(CCCl)CCCl)NCCCO1 (stereo not drawn) [CPA, cyclophosphamide]
- Inhibition of plaque production (Vero cells): did not inhibit plaque production
- Effect of CPA on replication of rRp450 (9L cells): did not significantly inhibit replication of rRp450
- Effect of drug on viral protein synthesis [1]: did not appear to significantly inhibit viral protein synthesis
- Growth of U87 tumors, agent alone (human U87 tumors): relatively rapid
